The target of experiment [1] is T1, L-Selectin (Homo sapiens, UniProt P14151).
T1 construct: purchased Research and Development Systems 728-LS
T1 sequence (P14151 39-332 limits assumed): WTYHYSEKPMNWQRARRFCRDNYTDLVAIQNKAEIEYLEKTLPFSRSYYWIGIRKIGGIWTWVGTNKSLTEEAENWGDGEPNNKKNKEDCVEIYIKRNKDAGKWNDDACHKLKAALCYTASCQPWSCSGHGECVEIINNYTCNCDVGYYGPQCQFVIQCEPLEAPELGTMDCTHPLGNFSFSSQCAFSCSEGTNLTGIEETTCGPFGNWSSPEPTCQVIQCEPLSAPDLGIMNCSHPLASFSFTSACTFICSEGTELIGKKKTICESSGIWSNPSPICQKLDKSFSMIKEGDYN
Description: ELISA: inhibition of L-selectin/IgG binding to immobilized heparin (Heparin-BSA). To be noted: L-Selectin binding to heparin; 50 μM. The method, then: The inhibitory effect of the compounds of the present invention can be evaluated by several methods in vitro. One assay for measuring GAG-ECAM binding, exemplified herein below, detects the binding of L selectin/IgG to immobilized heparin. Another assay utilizes immobilized L-selectin, or L-selectin fused to protein domains other than IgG. The amount of bound L-selectin is determined by an ELISA assay using, for example, a monoclonal antibody raised against L-selectin, which is conjugated to horseradish peroxidase. […] The Dregg-55 antibody was also shown to inhibit L-selectin-dependent adhesion in vitro, neutrophil accumulation in vitro and inflammation in vivo (Co M. S. et al, Immunotechnology 493: 253-266, 1999).
An in vitro assay was used to assess the ability of test compounds according to formula I to inhibit the interactions of L-selectin with HS-GAGs. The assay was suitable for determining the concentration required for 50% inhibition (IC-50) for each specific compound. In the assay, the GAG used was heparin. Thus, porcine intestinal mucosa heparin conjugated to Bovine Serum Albumin (Heparin-BSA; Sigma Cat. No. H0403) at […] in Phosphate Buffered Saline (PBS; pH 6.5) was added to a 96 well polystyrene ELISA plate (NUNC Cat. No. 442404; 0.1 ml per well) and incubated Over Night (ON) at 4° C. Following the incubation, the plate was washed thoroughly, by immersion, with de-ionized water and PBS (pH 6.5). The ELISA plate was then blocked with BSA (ICN Cat. No.160069, 3%, 200 μl per well) for 1 hour at Room Temperature (RT). Following blocking, the plate was washed with de-ionized water, and then with PBS (pH 6.5) containing Tween 20 (Sigma Cat. No. P-1379, 0.05%). Compounds were synthesized or purchased from ChemDiv Labs (San Diego, Calif.), dissolved in DMSO, diluted in PBS and added to the wells at various concentrations in the range of 0.01 to 300 μM. Recombinant Human L-Selectin/IgG (Research and Development Systems Cat. No.728-LS) dissolved in PBS supplemented with BSA (0.1%) and calcium chloride (1 mM) was added to the ELISA plate (100 μl per well) and incubated for 60 minutes at RT with shaking. Following incubation, the plate was washed with de-ionized water and three times with PBS (pH 6.5) containing Tween 20. Anti-Human IgG Peroxidase Conjugate (1:5000; Sigma Product No. A8667) diluted in PBS supplemented with BSA (0.1%) and calcium chloride (1 mM) was added to the ELISA plate (100 μl per well) and incubated for 30 minutes at RT with shaking. The plate was then washed with de-ionized water and three times with PBS (pH 6.5) containing Tween 20. The peroxidase substrate cromogen, TMB (Dako Cat. No. S1599) was added (100 μl per well) to the ELISA plate and incubated at room temperature. After 15 minutes ELISA Stop Solution (hydrochloric acid 1N, sulfuric acid 3N) was added (200 μl per well) to stop the peroxidase catalyzed colorimetric reaction. The Optical Density (OD) of the samples was measured at 450 nm using an ELISA plate reader (Dynatech MR5000). Data were analyzed with Graphpad Prism software and IC-50 values were established. The P-selectin assay was carried out in a similar fashion, except that Recombinant Human P-Selectin/IgG (Research and Development Systems Cat.No.137-PS) was used.

In experiment [2] the test system is immobilized heparin / L-selectin/IgG. The experiment is described as follows: Assay 1: direct interaction with heparin, pre-incubation versus co-incubation with L-selectin. In kind it is binding. To be noted: compound 0.1-200 μM, 90 min, washed before L-selectin/IgG. The method, then: Inhibitor Compounds at final concentration 0.1-200 μM were incubated in the ELISA plate for 90 min, and then washed with incubation buffer. After washing, L-selectin/IgG was added to the wells pre-incubated with compounds. At the same time, in separate control wells, L-selectin was co-incubated with inhibitor Compounds for 90 min. Following the incubation, L-selectin bound to the plate was quantified by antibody conjugated to Horse Radish Peroxidase and OD measurement as performed as described in Example 5.

Experiment [3] deals with BALB/c mice. Description: Thioglycollate-induced leukocyte and neutrophil infiltration into mouse peritoneum. In kind it is in vivo. The method, then: The ability of compounds of the present invention to reduce leukocyte migration to sites of acute inflammation was evaluated in BALB/c mice using a thioglycolate-induced model of peritonitis. In this animal model, interactions of L- and P-selectin with HS-GAGs have been implicated in neutrophil infiltration (Nelson, R. M., 82:3253-3258, 1993; Xie, X. et al., J. Biol. Chem., 275:34818-34825, 2000).
BALB/c mice (6 weeks old, ˜20 g in weight, 15 mice/group) received intraperitoneal injection of an inhibitor compound in 0.2 ml DMSO/Tween/sterile saline 1 hour before administration of thioglycollate (Sigma). Control groups received vehicle and sham controls received no thioglycollate. Mice were injected intraperitoneally with 1 ml of 3% thioglycollate broth (Xie, X. et al., J. Biol. Chem., 275, 34818-34825, 2000). Mice were sacrificed after 3 hours, and the peritoneal cavities were ravaged with […] of ice-cold saline containing 2 mM EDTA to prevent clotting. After red blood cell lysis, leukocytes were counted in a hemocytometer. Neutrophils were counted after staining with Türck. Data was expressed as mean±SEM, and statistical analysis was performed by Student t test. A value of P<0.05 was taken to denote statistical significance.

The test system of experiment [4] is BALB/c mice. Description: Carrageenan-induced paw edema. In kind it is in vivo, mouse. As to conditions: i.p. administration 60 min before carrageenan. The method, then:
Acute edema was induced in the left hind paw of Balb/c mice by injecting 0.02 ml of freshly prepared solution of 2% carrageenan after 60 min of test compound administration (Torres, S. R. et al., European Journal of Pharmacology 408: 199-211, 2000). The right paw received 0.02 ml of saline, which served as a control. Carrageenan was injected under the plantar region of right hind paw and the paw thickness was measured at 2, 4 and 24 hours after carrageenan challenge using a Mitutoyo engineer's micrometer expressed as the difference between right and left pad as mean±SEM. […] A dose response curve for Compound no.

Experiment [5] has as its system Mice. The experiment is described as follows: Delayed-type hypersensitivity (oxazolone, ear-swelling test). In kind it is in vivo, mouse. As to conditions: 3 mg/kg iv, 24 hours after challenge. The method, then: Mice (15 animals per group) were sensitized by topical application of a 2% oxazolone (4-ethoxymethylene-2-phenyl-2-oxazoline-5-one; Sigma, St Louis, Mo.) solution in acetone/olive oil (4:1 vol/vol) to shaved abdomen (50 μl) and to each paw (5 μl) (Lange-Asschenfeldt B. et al., Blood 99:538-545, 2002). Five days after sensitization, right ears were challenged by topical application of 10 μl of a 1% oxazolone solution, whereas left ears were treated with vehicle alone. Compounds were administered 1 hr prior to challenge. The extent of inflammation was measured 24 hours after challenge, using the mouse ear-swelling test. The unpaired Student t test was used for statistical analyses.

The term inhibition denotes the change of the read-out against control, counted positive when it falls. Lower therefore signals a response near the control. Turning to `CCCCN(CC)S(=O)(=O)c1ccc(C(=O)Nc2sc3c(c2-c2nc4ccccc4s2)CCN(CC)C3)cc1` [Compound 5, 2-[[4-[(ethylbutylamino)sulfonyl]benzoyl]amino]-3-(benzothiazol-2-yl)-6-ethyl-4,5,6,7-tetrahydrothieno[2,3-c]pyridine], the inhibition at 50 µM in experiment [1] worked out at 62%. The “level of inhibition of L-selectin binding to heparin, pre-incubation versus co-incubation” value in experiment [2] is on record as “same level of inhibition”. Besides, the “reduction of leukocyte infiltration” value is 25% in experiment [3] (2 mg/kg intraperitoneal), 50% in experiment [3] (10 mg/kg intraperitoneal) and 75% in experiment [3] (50 mg/kg intraperitoneal). For the same compound, in experiment [3] (FIG. 4, 2, 10, 50 mg/kg), the “neutrophil infiltration in mouse peritonitis (in words)” value is listed as “dose-dependent inhibition”. Further, in experiment [3] (intraperitoneal, 1 hour before thioglycollate, 3 hours), the “leukocyte migration into the peritoneal cavity (in words)” value is reported as “inhibited efficiently”. In addition, the “carrageenan induced paw edema (in words)” value in experiment [4] was “anti-inflammatory properties”. In experiment [5], the “DTH, % of control value” is 56 % of control value.
